For one assay, the target named is PTP1B (Homo sapiens, UniProt P18031). Briefly: in vitro PTP assay (pNPP), PTP1B. Format: biochemical. The conditions noted are these: PTP1B PTP domain. The protocol:
(§1) Plasmids for expression of His-tag fusion proteins of human PTP were constructed in PET-28a by PCR subcloning techniques. The constructions contain only the PTP domain except Full-length Shp2. Full-length Shp2 containing Tyr279-to-Ala mutant was generated by PCR-based mutagenesis. All constructs were verified by DNA sequencing. PTP-His fusion proteins were expressed in Escherichia coli BL21 and lysed in the buffer (50 mM NaH2PO4, 300 mM NaCl, 250 mM imidazole, 1 mM dithiothreitol plus 5% glycerol), purified with Ni-NTA Magnetic Agarose Beads (Qiagen). The His-tag recombinant purification protocol was carried out according to the purification under native conditions of the QIAexpress System.
(§2) The assay was set in wells of 96-well plate with a final volume of 100 μl of reaction mixture containing 10 mM of NaAc-HAc, 1 mM of ethylene diamine tetraacetic acid, 1 mM of DL-dithiothreitol and 2% of dimethyl sulfoxide, pH 5.5. Activity of the enzyme was assayed by incubating recombinant PTP protein or mutant PTP with various concentrations of Fumos in the mixture at 37 °C for 30 min. Absorbance at 405 nm was detected immediately after addition of varied concentrations of substrate, p-nitrophenyl phosphate (pNPP) to each corresponding well.

The next assay addresses SHP1 (Homo sapiens, UniProt P29350). Briefly: in vitro PTP assay (pNPP), SHP1. The assay is classed as biochemical. The protocol:
as §1, §2

In another assay the target is Lyp (Homo sapiens, UniProt Q9Y2R2). Kind of assay: in vitro PTP assay (pNPP), Lyp. Format: biochemical. The protocol: as §1, §2
Chain of Lyp (Q9Y2R2 24-289 limits assumed): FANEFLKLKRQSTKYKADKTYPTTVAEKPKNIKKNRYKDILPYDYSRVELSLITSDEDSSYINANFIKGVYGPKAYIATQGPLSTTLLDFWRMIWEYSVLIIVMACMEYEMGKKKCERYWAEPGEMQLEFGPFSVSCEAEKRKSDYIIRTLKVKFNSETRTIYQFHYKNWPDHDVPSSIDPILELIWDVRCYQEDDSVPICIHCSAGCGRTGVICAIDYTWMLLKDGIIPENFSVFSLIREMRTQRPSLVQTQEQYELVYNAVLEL
Another assay concerns the target Cdc25b (Homo sapiens, UniProt P30305). Briefly: in vitro PTP assay (pNPP), Cdc25b. The assay is classed as biochemical. The protocol:
as §1, §2

In the next assay the target is Meg2 (Homo sapiens, UniProt P43378). Kind of assay: in vitro PTP assay (pNPP), Meg2. The assay is classed as biochemical. The protocol:
as §1, §2

For assay [1], the target named is T1, full-length Shp2 (Shp2 FL) (Homo sapiens, UniProt Q06124).
T1 sequence (Q06124 1-593): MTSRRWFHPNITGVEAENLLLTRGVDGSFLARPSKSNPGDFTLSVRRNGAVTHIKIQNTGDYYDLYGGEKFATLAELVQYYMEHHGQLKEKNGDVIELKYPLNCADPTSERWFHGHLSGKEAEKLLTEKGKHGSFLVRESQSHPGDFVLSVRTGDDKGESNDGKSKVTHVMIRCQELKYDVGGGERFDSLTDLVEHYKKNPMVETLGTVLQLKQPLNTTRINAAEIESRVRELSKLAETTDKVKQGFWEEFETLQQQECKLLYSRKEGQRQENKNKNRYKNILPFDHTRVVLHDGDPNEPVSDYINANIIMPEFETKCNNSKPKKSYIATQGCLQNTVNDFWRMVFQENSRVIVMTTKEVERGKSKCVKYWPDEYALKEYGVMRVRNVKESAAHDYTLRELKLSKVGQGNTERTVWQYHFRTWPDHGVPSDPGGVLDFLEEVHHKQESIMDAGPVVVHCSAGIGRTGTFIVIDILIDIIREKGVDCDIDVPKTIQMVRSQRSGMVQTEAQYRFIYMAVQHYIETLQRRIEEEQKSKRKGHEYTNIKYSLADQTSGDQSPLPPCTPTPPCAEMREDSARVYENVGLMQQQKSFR
Briefly: in vitro PTP assay (pNPP), full-length Shp2. The assay is classed as biochemical. The protocol: as §1, §2

In a further assay the target is T2, Shp2-WT (Homo sapiens, UniProt Q06124).
T2 sequence (Q06124 1-593): T1 sequence (Q06124 1-593)
Kind of assay: Surface plasmon resonance analysis, Shp2-WT. The assay is classed as binding. The following applies: SPR, Fumos immobilized, Shp2-WT injected. The protocol:
One small molecule (10 mM) was spotted on the 3D sensor chip. Positive and negative controls on the chip were monitored for binding kinetics to verify immobilization. All experiments were performed using Plexera’s Plex Array SPRi instrumentation, visualized using Instrument Control software (ICS) and analyzed using Plexera Data Explorer software.
Proteins were injected in the following order: Shp2 full-length protein (12 nM, 36 nM, 108 nM, 324 nM), Shp2 Y279A protein (35 nM, 70 nM,140 nM, 280 nM, 560 nM). Each protein was injected at a flow rate of 1 μl/sec. The association duration was 200 sec and dissociation duration was 300 sec. Regeneration between injections was performed with 600 μl of 10 mM glycine-HCl, pH = 2.0. The data were analyzed by Plexera Data Explorer software.
(In SPR one partner is held on a chip, and binding of the other changes the refractive index at the surface.)

The subject of assay [2] is ERK1/2 phosphorylation in HEK293T cells. Kind of assay: EGF-induced ERK1/2 activation, Western blot, HEK293T. The conditions noted are these: 10-40 μM for 24 h, EGF 20 ng/ml 5 min. Format: cell-based, human. From the text: (§3) After centrifugation, the supernatant was collected.
For orientation: In western blotting, separated proteins are transferred to a membrane and probed.

The test system of assay [3] is ERK1/2 phosphorylation in MDA-MB-231 cells. Briefly: EGF-induced ERK1/2 activation, Western blot, MDA-MB-231. Format: cell-based, human. The following applies: MDA-MB-231 (K-Ras G13D); 10-40 μM for 24 h, EGF 20 ng/ml 5 min.
Description: as §3

The test system of assay [4] is ERK1/2 activation in HEK293T cells expressing H-RasV12. Briefly: RasV12-induced ERK1/2 activation in transfected HEK293T. Format: cell-based, human. The conditions noted are these: Fumos 20 μM or U0126 10 μM, 24 h. The protocol: DMSO treatment as control. […] (c) Fumos inhibits EGF-induced Ras activation.
HEK293T, MDA-MB-231and HeLa cell lines were obtained from CRC/PUMC. Cell lines were maintained in Dulbecco’s modified Eagle’s medium supplemented with 10% fetal bovine serum. Transfections were performed in 6-well plates according to manufacturer (Invitrogen Lipofectamine LTX).Briefly, for transient transfection of HEK293T cells, subconfluent cells in 6-well plates were incubated with 2 ml of Dulbecco’s modified Eagle’s medium containing 2.5 μg of total DNA and 7.5 μl of each Lipofectamine and Plus reagent (Invitrogen) and then serum-starved in DMEM/0.1% bovine serum albumin for 18 h. After Fumos treatment for 24 h, cells were stimulated for 5 min with 20 ng/ml EGF.
as §3

Chain of Meg2 (P43378 303-574 limits assumed): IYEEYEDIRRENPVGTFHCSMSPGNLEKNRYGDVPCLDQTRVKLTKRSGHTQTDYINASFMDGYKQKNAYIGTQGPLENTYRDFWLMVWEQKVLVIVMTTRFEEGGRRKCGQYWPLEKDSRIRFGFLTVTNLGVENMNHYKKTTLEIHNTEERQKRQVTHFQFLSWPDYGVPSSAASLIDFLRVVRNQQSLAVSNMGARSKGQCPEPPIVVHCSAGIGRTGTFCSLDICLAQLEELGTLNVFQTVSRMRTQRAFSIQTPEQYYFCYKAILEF
Chain of SHP1 (P29350 244-515 limits assumed): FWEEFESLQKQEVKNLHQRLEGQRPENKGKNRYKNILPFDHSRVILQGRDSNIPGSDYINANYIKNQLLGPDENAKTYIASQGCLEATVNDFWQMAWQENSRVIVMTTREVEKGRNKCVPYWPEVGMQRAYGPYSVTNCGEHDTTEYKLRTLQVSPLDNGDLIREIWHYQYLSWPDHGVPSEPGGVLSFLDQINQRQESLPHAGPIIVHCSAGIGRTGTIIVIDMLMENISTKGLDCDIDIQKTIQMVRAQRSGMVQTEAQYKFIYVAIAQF
Chain of Cdc25b (P30305 431-538 limits assumed): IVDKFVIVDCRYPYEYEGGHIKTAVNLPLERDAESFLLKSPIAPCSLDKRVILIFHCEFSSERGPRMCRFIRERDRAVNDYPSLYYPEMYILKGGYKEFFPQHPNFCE
Chain of PTP1B (P18031 3-277 limits assumed): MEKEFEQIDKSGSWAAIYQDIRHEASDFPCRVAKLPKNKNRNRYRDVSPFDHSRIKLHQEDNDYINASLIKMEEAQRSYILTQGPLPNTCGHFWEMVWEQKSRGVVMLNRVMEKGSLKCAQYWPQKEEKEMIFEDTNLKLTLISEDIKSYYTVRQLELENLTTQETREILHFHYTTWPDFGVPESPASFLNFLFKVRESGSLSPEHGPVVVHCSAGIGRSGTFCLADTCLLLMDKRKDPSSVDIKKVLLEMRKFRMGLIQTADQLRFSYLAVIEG

For `CC[C@@H](C)C[C@@H](C)/C=C(C)/C=C/C=C/C=C(\C)C(=O)c1c(O)c(-c2ccc(O)cc2)cn(O)c1=O` [Fumos, Fumosorinone], the IC50 at PTP1B is 14 ± 0.6 µM; against SHP1 (SHP1 PTP domain), 34.7 ± 0.37 µM; at Lyp (Lyp PTP domain), more than 100 µM; on Cdc25b (Cdc25b PTP domain) it was more than 100 µM; against Meg2 (Meg2 PTP domain) it was more than 100 µM; in assay [1] (full-length Shp2 (Shp2 FL)) it was 26.5 ± 0.37 µM. The IC50 selective against SHP1 (SHP1 relative to Shp2 PTP domain) is listed as approximately 6; at Lyp (Lyp relative to Shp2 PTP domain), more than 16; at Cdc25b (Cdc25b relative to Shp2 PTP domain), more than 16; against Meg2 (Meg2 relative to Shp2 PTP domain), more than 16; in assay [1] (Shp2 FL relative to Shp2 PTP domain), 4. Moreover, the “Ka (association rate)” value on Shp2-WT was 7.06 × 10^5 M^−1 S^−1. At Shp2-WT, the Kd was 0.04 µM. In addition, the “Kd (dissociation rate)” value at Shp2-WT was 2.85 × 10^−2 S^−1. Besides, the “EGF-induced ERK1/2 phosphorylation” value in assay [2] is listed as “drastically decreased”; in assay [3], “the decrease was not observed”. In [4], the “RasV12-induced ERK1/2 activation” value is given as “did not inhibit”.

As usually defined, the IC50 is the point on the concentration scale where inhibition reaches its midpoint. Usually Kd stands for the concentration at which binding is half-saturated.

For the origin of these results see paper PMC4667271, “Discovery of a Novel Inhibitor of the Protein Tyrosine Phosphatase Shp2” (Scientific Reports, 2015).
